# Assay results from patent US20240124389A1, “COMPOUND OR SALT THEREOF, LIPID PARTICLES, AND PHARMACEUTICAL COMPOSITION” (FUJIFILM Corporation, priority 2021, published 2024).
# Key:
# Type in all cases: physicochemical
# PTEN ASO = assay: Encapsulation rate of PTEN ASO in lipid particles; details: aminolipid 50 / DSPC 20 / cholesterol 28.5 / monostearyl PEG 1.5 mol %, lipid/nucleic acid 11.8 wt/wt
# Experimental: (§1) The first lipid, phospholipid, cholesterol, and polyethylene glycol lipid (PEG lipid) shown in Table 3 were dissolved in ethanol at the molar ratio shown in Table 3 such that the total lipid concentration was 20 mmol/L to obtain the oil phase.
# (§2) As the neutral lipid, 1,2-Distearoyl-sn-glycero-3-phosphocholine (DSPC, product name: COATSOME MC-8080, NOF corporation) was used. As the cholesterol, cholesterol (product name: Cholesterol HP; Nippon Seika Co., Ltd.) was used. As the PEG lipid, monostearyl PEG (product name: Polyethylene Glycol Monostearate (4E.O.), FUJIFILM Wako Pure Chemical Corporation) was used.
# (§3) 5 mg of PTEN ASO was dissolved in 1 mL of sterile water and diluted with a 10 mmol/L acetate buffer having a pH of 4 such that the nucleic acid concentration was 54.6 μmol/L, to obtain a water phase. Then the water phase and the oil phase were mixed together with a micromixer (see JP5288254B) using a syringe pump such that the volume ratio of water phase:oil phase was 3:1, and the mixed solution was two-fold diluted with a phosphate buffered physiological saline (PBS), thereby obtaining a dispersion of nucleic acid lipid particles.
# 30 μL of 3 mol/L aqueous sodium acetate solution and 9 μL of glycogen were added to 60 μL of the lipid particles retaining nucleic acids, and then 1.5 mL of ethanol was added thereto, so that only the nucleic acids were precipitated while the lipid was dissolved. Then, the supernatant was removed by centrifugation. The precipitates were air-dried for 15 minutes or longer, then water was added thereto to redissolve the precipitates, and the concentration thereof was measured using Nanodrop ND1000 (Thermo Fisher Scientific), thereby quantifying the total nucleic acid concentration.
# The mRNA concentration was quantified using a Quant-iT RiboGreen RNA Assay Kit (Thermo Fisher Scientific) according to the protocol. First, a 20×TE buffer included in the above-described kit was diluted with water, thereby obtaining a 1×TE buffer. TE represents Tris/EDTA (ethylenediaminetetraacetic acid). In order to quantify only the nucleic acid in the outer water phase, the dispersion liquid of lipid particles retaining nucleic acids was 10,000-fold diluted with the 1×TE buffer.
# 100 μL of the 10,000-fold diluted dispersion liquid of lipid particles was put into a 96-well plate, then 100 μL of a RiboGreen reagent (reagent included in the Quanti-iT Ribogreen RNA Assay Kit described above) 2,000-fold diluted with the 1×TE buffer was added to a sample, and fluorescence (excitation wavelength: 485 nm, fluorescence wavelength: 535 nm) was measured using a plate reader Infinite F200 (TECAN), thereby quantifying the nucleic acid concentration in the outer water phase.
# By using the quantification results of the total nucleic acid concentration and the nucleic acid concentration in the outer water phase that were obtained through the above steps, the nucleic acid encapsulation rate of the nucleic acid lipid particles was calculated according to the following Equation.
# Nucleic acid encapsulation rate (%)=(total nucleic acid concentration—nucleic acid concentration in outer water phase)/total nucleic acid concentration×100
# [1] = Particle size of PTEN ASO-LNP; details: PTEN ASO lipid particles; aminolipid 50 / DSPC 20 / cholesterol 28.5 / monostearyl PEG 1.5 mol %; lipid/nucleic acid 11.8 wt/wt
# Experimental: as §1, §2, §3
# The particle size and polydispersion index of the lipid particles were measured by 10-fold diluting the dispersion liquid of lipid particle with phosphate buffered physiological saline (PBS) using Zeta-potential & Particle size Analyzer ELS-Z2 (Otsuka Electronics Co., Ltd.).
# FLuc mRNA = assay: mRNA encapsulation rate of FLuc mRNA-encapsulating lipid particles
# Experimental: The compounds described in Table 2, the neutral lipid, cholesterol (product name: Cholesterol HP; NTPPON FINE CHEMICAL CO., LTD.), and 1,2-dimyristoyl-rac-glycero-3-(methylpolyoxyethylene 2000) (hereinafter, called DMG-PEG2000) were dissolved in ethanol at a molar ratio in Table 2 such that the total lipid concentration became 20 mmol/L, thereby obtaining an oil phase.
# As the neutral lipid, 1,2-distearoyl-sn-glycero-3-phosphocholine (product name: COATSOME® MC-8080; NOF corporation) was used in a case of Comparative Example 1, and L-α-dioleoylphosphatidylethanolamine (product name: COATSOME® MC-8181; NOF corporation) was used in a case other than Comparative Example 1.
# FLuc mRNA (product name: CleanCap FLuc mRNA (5 moU); TriLink) was diluted with 50 mmol/L citrate buffer having a pH 4 such that the weight ratio of total lipid concentration to mRNA concentration is about 19:1 to 64:1, obtaining a water phase. Then, the water phase and the oil phase were mixed together using NanoAssemblr (Precision NanoSystems) such that the volume ratio of water phase:oil phase was 3:1, and the mixed solution was 1.5-fold diluted with phosphate buffered saline (PBS), thereby obtaining a dispersion liquid of mRNA lipid particles. The dispersion liquid was dialyzed with a 10% aqueous sucrose solution using a dialysis cassette (Slide-A-Lyzer G2, MWCO: 10 kD, Thermo Fisher Scientific) to remove ethanol, thereby obtaining FLuc mRNA-encapsulating lipid particles.
# 15 to 30 μL of a 3 mol/L aqueous sodium acetate solution and 4.5 to 9 μL of glycogen were added to 30 to 60 μL of the lipid particles retaining mRNA, and 0.75 to 1.5 mL of ethanol was added thereto, so that only the nucleic acids were precipitated while the lipid was dissolved. Then, the supernatant was removed by centrifugation. The precipitates were air-dried for 15 minutes or longer, then water was added thereto to redissolve the precipitates, and the concentration thereof was measured using Nanodrop NF1000 (Thermo Fisher Scientific), thereby quantifying the total mRNA concentration.
# The mRNA concentration was quantified using a Quant-iT RiboGreen RNA Assay Kit (Thermo Fisher Scientific) according to the protocol. First, a 20×TE buffer included in the above-described kit was diluted with water, thereby obtaining a 1×TE buffer. TE represents Tris/EDTA (ethylenediaminetetraacetic acid). In order to quantify only mRNA in the outer water phase, the dispersion liquid of lipid particles retaining mRNA was 10,000-fold diluted with the 1×TE buffer. 100 μL of the 10,000-fold diluted dispersion liquid of lipid particles was put into a 96-well plate, then 100 μL of a RiboGreen reagent (reagent included in the Quanti-iT Ribogreen RNA Assay Kit described above) 2,000-fold diluted with the 1×TE buffer was added to a sample, and fluorescence (excitation wavelength: 485 nm, fluorescence wavelength: 535 nm) was measured using a plate reader Infinite F200 (TECAN), thereby quantifying the mRNA concentration in the outer water phase.
# By using the quantification results of the total mRNA concentration and the mRNA concentration in the outer water phase that were obtained through the above steps, the mRNA encapsulation rate of the mRNA lipid particles was calculated according to the following Equation.
# mRNA encapsulation rate (%)=(total mRNA concentration-mRNA concentration in outer water phase)/total mRNA concentration×100
# [2] = aminolipid 45 / DOPE 10 / cholesterol 43.5 / DMG-PEG2000 1.5 mol %, lipid/nucleic acid 32 wt/wt
structure (smiles),measurement,setting,value
"CCCCCCC(CCCC)COC(=O)CCCC(CCCCCC)OC(=O)OCCN(CCOC(=O)OC(CCCCCC)CCCC(=O)OCC(CCCC)CCCCCC)CCN(CC)CC (stereo not drawn) [Example 8, Bis(2-butyloctyl) 11-(2-(diethylamino)ethyl)-5,17-dihexyl-7,15-dioxo-6,8,14,16-tetraoxa-11-azahenicosanedioate]",Nucleic acid encapsulation rate,PTEN ASO,93%
same,Particle size,[1],87.7 nm
"CCCCCCC(CCCC(=O)OCC(CCCCC)CCCCC)OC(=O)OCCN(CCCN(CC)CC)CCOC(=O)OC(CCCCCC)CCCC(=O)OCC(CCCCC)CCCCC (stereo not drawn) [Example 13, Bis(2-pentylheptyl) 11-(3-(diethylamino)propyl)-5,17-dihexyl-7,15-dioxo-6,8,14,16-tetraoxa-11-azahenicosanedio ate]",Nucleic acid encapsulation rate,PTEN ASO,97%
same,Particle size,[1],60.4 nm
same,Nucleic acid encapsulation rate,FLuc mRNA; [2],99.1%
"CCCCCC(CCCCC)COC(=O)CCCC(CCC)OC(=O)OCCN(CCOC(=O)OC(CCC)CCCC(=O)OCC(CCCCC)CCCCC)CCN(CC)CC (stereo not drawn) [Example 21, Bis(2-pentylheptyl) 11-(2-(diethylamino)ethyl)-7,15-dioxo-5,17-dipropyl-6,8,14,16-tetraoxa-11-azahenicosanedioate]",Nucleic acid encapsulation rate,PTEN ASO,96%
same,Particle size,[1],81.5 nm
same,Nucleic acid encapsulation rate,FLuc mRNA; [2],98.4%
"CCCCCCCOC(=O)CCCC(CCCC(=O)OCCCCCCC)OC(=O)OCCN(CCOC(=O)OC(CCCC(=O)OCCCCCCC)CCCC(=O)OCCCCCCC)CCN(CC)CC [Example 29, diheptyl 11-(2-(diethylamino)ethyl)-5,17-bis(4-(heptyloxy)-4-oxobutyl)-7,15-dioxo-6,8,14,16-tetraoxa-11-azahenicosanedioate]",Nucleic acid encapsulation rate,PTEN ASO,92%
same,Particle size,[1],104.3 nm
same,Nucleic acid encapsulation rate,"FLuc mRNA; aminolipid 40 / DOPE 10 / cholesterol 48.5 / DMG-PEG2000 1.5 mol %, lipid/nucleic acid 64 wt/wt",100.0%
same,Nucleic acid encapsulation rate,FLuc mRNA; [2],95.0%
same,Nucleic acid encapsulation rate,"FLuc mRNA; aminolipid 50 / DOPE 10 / cholesterol 38.5 / DMG-PEG2000 1.5 mol %, lipid/nucleic acid 64 wt/wt",100.0%
"CCCCCCCOC(=O)CCCC(CCCC(=O)OCCCCCCC)OC(=O)OCCN(CCOC(=O)OC(CCCC(=O)OCCCCCC)CCCC(=O)OCCCCCC)CCN(CC)CC [Example 37, 1-Heptyl 21-hexyl 11-(2-(diethylamino)ethyl)-5-(4-(heptyloxy)-4-oxobutyl)-17-(4-(hexyloxy)-4-oxobutyl)-7,15-d ioxo-6,8,14,16-tetraoxa-11-azahenicosanedioate]",Nucleic acid encapsulation rate,PTEN ASO,92%
same,Particle size,[1],58.6 nm
